Values after ≈ are worked out from the molar mass of the structure shown.
system: S. aureus ATCC 29213; assay: MIC determination; assay type: cell-based; conditions: Staphylococcus aureus, ATCC29213, S. aureus ATCC 29213; read-out: MIC

Compound | MIC
CSC1O[C@H]([C@H](NC(=O)[C@H]2NC[C@@H]3CC=CCO[C@H]32)[C@H](C)Sc2ccc(-c3cncnc3)cc2)C(O)[C@@H](O)[C@H]1O (stereo partly shown) [FSA-27049] | 1 µg/mL (≈ 1.7 µM)
C=CCOC(=O)N1CCO[C@@H]2[C@H](CN[C@@H]2C(=O)N[C@H]([C@H](C)Cl)[C@H]2OC(SC)[C@H](O)[C@H](O)C2O)C1 (stereo partly shown) [FSA-503073] | 64 µg/mL (≈ 122 µM)
CSC1O[C@H]([C@H](NC(=O)[C@H]2NC[C@@H]3CNCCO[C@H]32)[C@H](C)Cl)C(O)C(O)[C@H]1O (stereo partly shown) [FSA-503001] | 64 µg/mL (≈ 145 µM)

system: S. aureus BAA 977 iErmA; assay: MIC determination; assay type: cell-based; conditions: Staphylococcus aureus, BAA977

Compound | MIC
CSC1O[C@H]([C@H](NC(=O)[C@H]2NC[C@@H]3CC=CCO[C@H]32)[C@H](C)Sc2ccc(-c3cncnc3)cc2)C(O)[C@@H](O)[C@H]1O (stereo partly shown) [FSA-27049] | 2 µg/mL (≈ 3.4 µM)
C=CCOC(=O)N1CCO[C@@H]2[C@H](CN[C@@H]2C(=O)N[C@H]([C@H](C)Cl)[C@H]2OC(SC)[C@H](O)[C@H](O)C2O)C1 (stereo partly shown) [FSA-503073] | 64 µg/mL (≈ 122 µM)
CSC1O[C@H]([C@H](NC(=O)[C@H]2NC[C@@H]3CNCCO[C@H]32)[C@H](C)Cl)C(O)C(O)[C@H]1O (stereo partly shown) [FSA-503001] | > 64 µg/mL

system: S. aureus MP-549 msr(a) USA 300; assay: MIC determination; assay type: cell-based; conditions: Staphylococcus aureus, USA300, S. aureus MP-549 msr(a) USA 300

Compound | MIC
CSC1O[C@H]([C@H](NC(=O)[C@H]2NC[C@@H]3CC=CCO[C@H]32)[C@H](C)Sc2ccc(-c3cncnc3)cc2)C(O)[C@@H](O)[C@H]1O (stereo partly shown) [FSA-27049] | 0.25 µg/mL (≈ 0.425 µM)
C=CCOC(=O)N1CCO[C@@H]2[C@H](CN[C@@H]2C(=O)N[C@H]([C@H](C)Cl)[C@H]2OC(SC)[C@H](O)[C@H](O)C2O)C1 (stereo partly shown) [FSA-503073] | 32 µg/mL (≈ 61.1 µM)
CSC1O[C@H]([C@H](NC(=O)[C@H]2NC[C@@H]3CNCCO[C@H]32)[C@H](C)Cl)C(O)C(O)[C@H]1O (stereo partly shown) [FSA-503001] | > 64 µg/mL

system: S. aureus Micromyx USA 300; assay: MIC determination; assay type: cell-based; conditions: Staphylococcus aureus, USA300; S. aureus Micromyx USA 300; read-out: MIC

Compound | MIC
CSC1O[C@H]([C@H](NC(=O)[C@H]2NC[C@@H]3CC=CCO[C@H]32)[C@H](C)Sc2ccc(-c3cncnc3)cc2)C(O)[C@@H](O)[C@H]1O (stereo partly shown) [FSA-27049] | 1 µg/mL (≈ 1.7 µM)

system: S. aureus MP-513 clinical cErm; assay: MIC determination; assay type: cell-based; conditions: Staphylococcus aureus

Compound | MIC
CSC1O[C@H]([C@H](NC(=O)[C@H]2NC[C@@H]3CC=CCO[C@H]32)[C@H](C)Sc2ccc(-c3cncnc3)cc2)C(O)[C@@H](O)[C@H]1O (stereo partly shown) [FSA-27049] | > 64 µg/mL
C=CCOC(=O)N1CCO[C@@H]2[C@H](CN[C@@H]2C(=O)N[C@H]([C@H](C)Cl)[C@H]2OC(SC)[C@H](O)[C@H](O)C2O)C1 (stereo partly shown) [FSA-503073] | > 64 µg/mL
CSC1O[C@H]([C@H](NC(=O)[C@H]2NC[C@@H]3CNCCO[C@H]32)[C@H](C)Cl)C(O)C(O)[C@H]1O (stereo partly shown) [FSA-503001] | > 64 µg/mL

system: S. aureus MMX 3035 cErmA; assay: MIC determination; assay type: cell-based; conditions: Staphylococcus aureus, MMX3035CERMA

Compound | MIC
CSC1O[C@H]([C@H](NC(=O)[C@H]2NC[C@@H]3CC=CCO[C@H]32)[C@H](C)Sc2ccc(-c3cncnc3)cc2)C(O)[C@@H](O)[C@H]1O (stereo partly shown) [FSA-27049] | > 64 µg/mL

system: S. pneumoniae ATCC 49619; assay: MIC determination; assay type: cell-based; conditions: Streptococcus pneumoniae, ATCC49619; S. pneumoniae ATCC 49619; read-out: MIC

Compound | MIC
CSC1O[C@H]([C@H](NC(=O)[C@H]2NC[C@@H]3CC=CCO[C@H]32)[C@H](C)Sc2ccc(-c3cncnc3)cc2)C(O)[C@@H](O)[C@H]1O (stereo partly shown) [FSA-27049] | ≤ 0.06 µg/mL

system: S. pneumoniae MMX 3028 cErmB; assay: MIC determination; assay type: cell-based; conditions: Streptococcus pneumoniae, MMX3028CERMB

Compound | MIC
CSC1O[C@H]([C@H](NC(=O)[C@H]2NC[C@@H]3CC=CCO[C@H]32)[C@H](C)Sc2ccc(-c3cncnc3)cc2)C(O)[C@@H](O)[C@H]1O (stereo partly shown) [FSA-27049] | 32 µg/mL (≈ 54.4 µM)

system: S. pneumoniae MMX 3031 cMefA; assay: MIC determination; assay type: cell-based; conditions: Streptococcus pneumoniae, MMX3031CMEFA

Compound | MIC
CSC1O[C@H]([C@H](NC(=O)[C@H]2NC[C@@H]3CC=CCO[C@H]32)[C@H](C)Sc2ccc(-c3cncnc3)cc2)C(O)[C@@H](O)[C@H]1O (stereo partly shown) [FSA-27049] | ≤ 0.06 µg/mL

system: S. pyogenes ATCC 19615; assay: MIC determination; assay type: cell-based; conditions: Streptococcus pyogenes, ATCC19615; S. pyogenes ATCC 19615; read-out: MIC

Compound | MIC
CSC1O[C@H]([C@H](NC(=O)[C@H]2NC[C@@H]3CC=CCO[C@H]32)[C@H](C)Sc2ccc(-c3cncnc3)cc2)C(O)[C@@H](O)[C@H]1O (stereo partly shown) [FSA-27049] | ≤ 0.06 µg/mL

system: S. pyogenes MMX 946 Macrolide-Resistant; assay: MIC determination; assay type: cell-based; conditions: Streptococcus pyogenes; S. pyogenes MMX 946 Macrolide-Resistant (MacRes); read-out: MIC

Compound | MIC
CSC1O[C@H]([C@H](NC(=O)[C@H]2NC[C@@H]3CC=CCO[C@H]32)[C@H](C)Sc2ccc(-c3cncnc3)cc2)C(O)[C@@H](O)[C@H]1O (stereo partly shown) [FSA-27049] | 2 µg/mL (≈ 3.4 µM)

system: E. faecalis ATCC 29212; assay: MIC determination; assay type: cell-based; conditions: Enterococcus faecalis, ATCC29212

Compound | MIC
CSC1O[C@H]([C@H](NC(=O)[C@H]2NC[C@@H]3CC=CCO[C@H]32)[C@H](C)Sc2ccc(-c3cncnc3)cc2)C(O)[C@@H](O)[C@H]1O (stereo partly shown) [FSA-27049] | 64 µg/mL (≈ 109 µM)

system: E. faecalis MMX 847 Macrolide-Resistant; assay: MIC determination; assay type: cell-based; conditions: Enterococcus faecalis

Compound | MIC
CSC1O[C@H]([C@H](NC(=O)[C@H]2NC[C@@H]3CC=CCO[C@H]32)[C@H](C)Sc2ccc(-c3cncnc3)cc2)C(O)[C@@H](O)[C@H]1O (stereo partly shown) [FSA-27049] | > 64 µg/mL

system: C. difficile BAA 1805; assay: MIC determination; assay type: cell-based; conditions: Clostridioides difficile, BAA1805; C. difficile BAA 1805; read-out: MIC

Compound | MIC
CSC1O[C@H]([C@H](NC(=O)[C@H]2NC[C@@H]3CC=CCO[C@H]32)[C@H](C)Sc2ccc(-c3cncnc3)cc2)C(O)[C@@H](O)[C@H]1O (stereo partly shown) [FSA-27049] | 1 µg/mL (≈ 1.7 µM)

system: B. fragilis ATCC 25285; assay: MIC determination; assay type: cell-based; conditions: Bacteroides fragilis, ATCC25285

Compound | MIC
CSC1O[C@H]([C@H](NC(=O)[C@H]2NC[C@@H]3CC=CCO[C@H]32)[C@H](C)Sc2ccc(-c3cncnc3)cc2)C(O)[C@@H](O)[C@H]1O (stereo partly shown) [FSA-27049] | > 64 µg/mL

system: K. pneumoniae ATCC 10031; assay: MIC determination; assay type: cell-based; conditions: Klebsiella pneumoniae, ATCC10031

Compound | MIC
C=CCOC(=O)N1CCO[C@@H]2[C@H](CN[C@@H]2C(=O)N[C@H]([C@H](C)Cl)[C@H]2OC(SC)[C@H](O)[C@H](O)C2O)C1 (stereo partly shown) [FSA-503073] | > 64 µg/mL
CSC1O[C@H]([C@H](NC(=O)[C@H]2NC[C@@H]3CNCCO[C@H]32)[C@H](C)Cl)C(O)C(O)[C@H]1O (stereo partly shown) [FSA-503001] | > 64 µg/mL

system: E. coli ATCC 25922; assay: MIC determination; assay type: cell-based; conditions: Escherichia coli, ATCC25922

Compound | MIC
CSC1O[C@H]([C@H](NC(=O)[C@H]2NC[C@@H]3CC=CCO[C@H]32)[C@H](C)Sc2ccc(-c3cncnc3)cc2)C(O)[C@@H](O)[C@H]1O (stereo partly shown) [FSA-27049] | > 64 µg/mL
C=CCOC(=O)N1CCO[C@@H]2[C@H](CN[C@@H]2C(=O)N[C@H]([C@H](C)Cl)[C@H]2OC(SC)[C@H](O)[C@H](O)C2O)C1 (stereo partly shown) [FSA-503073] | > 64 µg/mL
CSC1O[C@H]([C@H](NC(=O)[C@H]2NC[C@@H]3CNCCO[C@H]32)[C@H](C)Cl)C(O)C(O)[C@H]1O (stereo partly shown) [FSA-503001] | > 64 µg/mL

system: E. coli MMX TolC parent strain; assay: MIC determination; assay type: cell-based; conditions: Escherichia coli

Compound | MIC
CSC1O[C@H]([C@H](NC(=O)[C@H]2NC[C@@H]3CC=CCO[C@H]32)[C@H](C)Sc2ccc(-c3cncnc3)cc2)C(O)[C@@H](O)[C@H]1O (stereo partly shown) [FSA-27049] | > 64 µg/mL

system: E. coli MMX 0121 ΔTolC; assay: MIC determination; assay type: cell-based; conditions: Escherichia coli

Compound | MIC
CSC1O[C@H]([C@H](NC(=O)[C@H]2NC[C@@H]3CC=CCO[C@H]32)[C@H](C)Sc2ccc(-c3cncnc3)cc2)C(O)[C@@H](O)[C@H]1O (stereo partly shown) [FSA-27049] | 8 µg/mL (≈ 13.6 µM)

system: E. coli MP-9 ΔTolC; assay: MIC determination; assay type: cell-based; conditions: Escherichia coli

Compound | MIC
CSC1O[C@H]([C@H](NC(=O)[C@H]2NC[C@@H]3CC=CCO[C@H]32)[C@H](C)Sc2ccc(-c3cncnc3)cc2)C(O)[C@@H](O)[C@H]1O (stereo partly shown) [FSA-27049] | 64 µg/mL (≈ 109 µM)
C=CCOC(=O)N1CCO[C@@H]2[C@H](CN[C@@H]2C(=O)N[C@H]([C@H](C)Cl)[C@H]2OC(SC)[C@H](O)[C@H](O)C2O)C1 (stereo partly shown) [FSA-503073] | > 64 µg/mL
CSC1O[C@H]([C@H](NC(=O)[C@H]2NC[C@@H]3CNCCO[C@H]32)[C@H](C)Cl)C(O)C(O)[C@H]1O (stereo partly shown) [FSA-503001] | > 64 µg/mL

system: E. coli MP-74 LptD mutant; assay: MIC determination; assay type: cell-based; conditions: Escherichia coli

Compound | MIC
CSC1O[C@H]([C@H](NC(=O)[C@H]2NC[C@@H]3CC=CCO[C@H]32)[C@H](C)Sc2ccc(-c3cncnc3)cc2)C(O)[C@@H](O)[C@H]1O (stereo partly shown) [FSA-27049] | 32 µg/mL (≈ 54.4 µM)

system: P. aeruginosa ATCC 27853; assay: MIC determination; assay type: cell-based; conditions: Pseudomonas aeruginosa, ATCC27853

Compound | MIC
CSC1O[C@H]([C@H](NC(=O)[C@H]2NC[C@@H]3CC=CCO[C@H]32)[C@H](C)Sc2ccc(-c3cncnc3)cc2)C(O)[C@@H](O)[C@H]1O (stereo partly shown) [FSA-27049] | > 64 µg/mL
C=CCOC(=O)N1CCO[C@@H]2[C@H](CN[C@@H]2C(=O)N[C@H]([C@H](C)Cl)[C@H]2OC(SC)[C@H](O)[C@H](O)C2O)C1 (stereo partly shown) [FSA-503073] | > 64 µg/mL
CSC1O[C@H]([C@H](NC(=O)[C@H]2NC[C@@H]3CNCCO[C@H]32)[C@H](C)Cl)C(O)C(O)[C@H]1O (stereo partly shown) [FSA-503001] | > 64 µg/mL

system: P. aeruginosa MMX Mex parent strain; assay: MIC determination; assay type: cell-based; conditions: Pseudomonas aeruginosa

Compound | MIC
CSC1O[C@H]([C@H](NC(=O)[C@H]2NC[C@@H]3CC=CCO[C@H]32)[C@H](C)Sc2ccc(-c3cncnc3)cc2)C(O)[C@@H](O)[C@H]1O (stereo partly shown) [FSA-27049] | > 64 µg/mL

system: P. aeruginosa MMX 3476 Δmex; assay: MIC determination; assay type: cell-based; conditions: Pseudomonas aeruginosa

Compound | MIC
CSC1O[C@H]([C@H](NC(=O)[C@H]2NC[C@@H]3CC=CCO[C@H]32)[C@H](C)Sc2ccc(-c3cncnc3)cc2)C(O)[C@@H](O)[C@H]1O (stereo partly shown) [FSA-27049] | > 64 µg/mL

system: H. influenzae ATCC 49247; assay: MIC determination; assay type: cell-based; conditions: Haemophilus influenzae, ATCC49247

Compound | MIC
CSC1O[C@H]([C@H](NC(=O)[C@H]2NC[C@@H]3CC=CCO[C@H]32)[C@H](C)Sc2ccc(-c3cncnc3)cc2)C(O)[C@@H](O)[C@H]1O (stereo partly shown) [FSA-27049] | 32 µg/mL (≈ 54.4 µM)

From US11767341B2, “Lincosamide antibiotics and uses thereof” (President and Fellows of Harvard College, priority 2017, dated 2023)
